From US12194093B2, “Dosing parameters for CD47 targeting therapies to hematologic malignancies” (The Board of Trustees of the Leland Stanford Junior …, priority 2017, dated 2025)
Entries after “also recorded” stand apart in the source; their conditions may differ.

Tests used:
HL60 leukemia cells = experiment: Macrophage phagocytosis of HL60 leukemia cells (flow cytometry); type: cell-based, human; details: azacitidine 1 μM
Method: Macrophages were labeled with an anti-CD206 Ab and all cells were analyzed by flow cytometry to determine phagocytosis of HL60 leukemia cells. Phagocytosis of HL60 leukemia cells was determined as percentage of GFP positive, HL60 engulfing, macrophages compared to total number of macrophages. Results were normalized to the condition with maximal phagocytosis (100%).

human AML = experiment: Human AML xenograft mouse model, early death and disease clearance; type: in vivo
Description: We have established a human AML xenograft mouse model to test CD47-SIRPalpha pathway blocking therapies.
We also observed that early death seemed to be related to burden of circulating disease, in that mice with high levels of circulating leukemia cells succumbed to early death.
The object of this study was to determine whether early death observed in AML-xenografted mice can be avoided by reducing the rate at which leukemia cells are killed. […] It was hypothesized that early death might be due either to agglutination of leukemic cells or tumor lysis, and that early death may be avoided by reducing the rate at which leukemia cells are killed.
All mice in the control group continuously progressed and died.

AML [1] = experiment: Pre-clinical models, trough level and anti-leukemic activity; type: in vivo
Method: (§1) This trough level served as the minimum trough level target to guide dosing in the Phase 1 trial. […] Rapid peaks and troughs observed were consistent with target-mediated disposition due to non-linear saturation of the CD47 sink. […] Dose levels of 10 mg/kg or greater (Cohorts 3 and 4) achieve target trough levels by about 4 weeks, which is the time of first response assessment.
(§2) Prospective testing of AML patients' molecular, chromosomal, and phenotypic characteristics by DNA sequencing, cytogenetic analysis/fluorescence in situ hybridization (FISH), and flow cytometry, can lead to identification of patients with greater responses to Hu5F9-G4.

[2] = AML Phase 1 trial, serum concentrations of Hu5F9-G4; type: in vivo, human; details: patients
Method: as §1

AML [3] = experiment: AML Phase 1 trial, clinical response; type: in vivo, human
Method: as §1
Several additional factors are notable for these patients with biologic activity.

[4] = system: bone marrow macrophages and T cells; experiment: Immunohistochemistry of macrophages and T cells in patient bone marrow; type: in vivo, human; details: patient with partial response
Method: In one patient that obtained a partial response, macrophage and T cell infiltrates in the bone marrow was assessed.

circulating WBC = experiment: AML Phase 1 trial, cytoreduction with concomitant Hu5F9-G4, safety; type: in vivo, human; details: any patients treated on Phase 1 trial
myeloid mutations = experiment: Targeted DNA sequencing of myeloid mutations in Phase 1 AML patients; type: in vivo, human; details: Phase 1 AML patients receiving Hu5F9-G4
Description: as §2

Nc1ncn([C@@H]2O[C@H](CO)[C@@H](O)[C@H]2O)c(=O)n1 [Azacitidine]
phagocytic elimination of HL60 leukemia cells by human macrophages (HL60 leukemia cells): did not enhance

Hu5F9-G4: a humanized anti-CD47 antibody
effect of intra-subject dose escalation (low doses first, then higher doses) (human AML; AML xenografted mice with high circulating burden): prevented early mortality but also resulted in safe clearance of leukemic cells
clearance of disease (human AML; Cohort I, 100 μg/day for 14 days, sole surviving mouse): disease was cleared
clearance of disease (human AML; Cohort III, 7 doses of 1 μg, 7 doses of 10 μg, 14 doses of 100 μg): noticeably diminished
relapse (human AML; Cohort III, after end of treatment): relapsed several weeks after the end of treatment
effect of retreatment after relapse (human AML; groups that received dose-escalating regimen): cleared the disease and led to long-term disease free survival in some cases
early death (human AML; initial dose 1 μg (Cohort III)): no early deaths and None
early death (human AML; initial dose 10 μg (Cohort II)): 1 of 5 and One mouse out of five
early death (human AML; initial dose 100 μg (Cohort I)): Four out of five
survival of subsequent doses (human AML; mouse, in vivo): remaining four mice survived
time to death after administration of the first dose (human AML; xenografted mice with very high circulating AML burden (>50% of total WBC) and marrow infiltration): ≤ 1 h
pre-clinical activity across AML subtypes (AML [1]; monotherapy, cytogenetic, molecular, phenotypic/morphologic subtypes): monotherapy activity across a wide range of cytogenetic, molecular, and phenotypic AML subtypes; also recorded: broad pre-clinical activity across AML morphologic, molecular, and cytogenetic subtypes
activity in relation to tumor burden (AML [1]; pre-clinical and initial clinical studies): enhanced activity in lower tumor burden of disease
trough level associated with efficacy (AML [1]; pre-clinical models): ≥ 100 µg/mL
achievement of target trough levels (100 μg/ml) ([2]; dose levels 3 mg/kg or less (Cohorts 1 and 2)): did not achieve target trough levels
time to achieve target trough levels (100 μg/ml) ([2]; dose levels of 10 mg/kg or greater (Cohorts 3 and 4)): about 4 weeks
blast reduction (AML [3]; Cohort 3, one patient with partial response): > 50%
RBC transfusion requirements (AML [3]; Cohort 3, patient with partial response, month 3 and beyond of treatment): from approximately every week prior to treatment to once a month
duration of response (AML [3]; Cohort 3, patient with partial response, ongoing): over 6 months
patients exhibiting biologic antileukemic activity (AML [3]; maximum of 10 mg/kg twice weekly (Cohort 3)): two out of three
response to therapy (AML [3]; patients, at or below 3 mg/kg (Cohorts 1 and 2)): not expected nor observed
macrophages present in the marrow (CD68 or CD163 staining) ([4]; week 4 of treatment): significant number of macrophages
T cell infiltrates, of all bone marrow cells ([4]; week 8 of therapy, baseline 10-15% or 15%): 40-50%
acute death related to Hu5F9-G4 (circulating WBC): No acute death
mutational burden (variant allele frequency) (myeloid mutations): Reduction in mutational burden (variant allele frequency) was observed for some mutations over others
